# In patent US20040029860A1, “Anti-proliferative drugs” (priority 2000, published 2004):
# Read-outs that look alike come from different tables or passages of the source.
# Key:
# [1] = tested on: human neuroblastoma (SH-SY5T); assay: cell viability, neuroblastoma SH-SY5T; assay type: cell-based; settings: for IC50: Homo sapiens
# Method: The effect of paroxetine on primary tissue cultures was also evaluated. […] The viability of the cells after treatment with paroxetine was determined by neutral red (NR) technology 24 hr. post treatment.
# (§1) Cyclic antidepressants at varying concentrations (between 10PM and 100 μM) was applied to neuroblastoma SH-SY5T, 3LL lung carcinoma, prostate (LN-CapAp), melanoma B16, and cell viability was determined as described above.
# [2] = tested on: mouse melanoma (B-16); assay: cell viability, melanoma B16; assay type: cell-based; settings: Mus musculus
# Method: as §1
# [3] = tested on: human prostate (LN-CapAp); assay: cell viability, prostate LN-Cap; assay type: cell-based; settings: Homo sapiens, LNCaP
# Method: The effect of trifluoperazine and flupentixol was studied in two cell-lines of human prostate cancer: androgen dependent (LN-Cap) and androgen independent (PC-3).
# as §1
# [4] = tested on: mouse lung sarcoma (3LL); assay: cell viability, lung 3LL; assay type: cell-based; settings: Mus musculus; Table 1B; read-out: Cell viability IC50 Lungs Sarcoma 3LL
# Method: In another experiment the effect of clotiapine at the same concentrations on the viability of mouse lung carcinoma (3LL) cells was determined.
# as §1
# [5] = tested on: mouse melanoma B16 MDR cells; assay: cell viability, melanoma B16 MDR; assay type: cell-based
# [6] = tested on: mouse Lewis lung carcinoma (3LL); assay: in vivo effect on Lewis lung carcinoma (3LL) in mice; settings: 3LL inoculated C57 mice, i.p. daily, thioridazine 15 mg/kg, others 30 mg/kg
# Method: Female C57 black mice aged 4 weeks were used in order to evaluate the in vivo effect of cyclic psychotropic agents on tumor cells. In particular, animals were divided into 5 groups (6-8 mice each). Animals were inoculated with mouse Lewis lung carcinoma (3LL, 0.5 million each) by i.v. injection to the tail vein and then treated by i.p. injection daily for 3 weeks with the following different agents
# (5) Paroxetine (30 mg/kg).
# During the treatment period animals were inspected daily and their body weight registered twice a week. […] After the four weeks of treatment the mice were sacrificed and their lungs dissected and weighted.
# [7] = tested on: B16 melanoma cells; assay: sensitization to doxorubicin, B16 melanoma cells; assay type: cell-based, mouse; settings: B16 melanoma cells, FIG. 6D
# [8] = tested on: HaCat keratinocytes; assay: keratinocyte viability, Neutral red, HaCat; assay type: cell-based, human; settings: for IC50: Homo sapiens, HaCaT
# Method: (§2) The drugs were administered at concentrations within the range of 5-100 μM and cell viability was measured 24 hr post-administration by Neutral red staining. The efficiency of the agents against viability of the cell lines was evaluated also by comparison with two commonly used anticancer agents (Doxorubicin and 5-fluorouracil (5-FU)) at equimolar concentrations.
# [9] = tested on: HaCat I5 keratinocytes; assay: keratinocyte viability, Neutral red, HaCat I5; assay type: cell-based, human
# Method: as §2
# [10] = tested on: HaCat II-4RT keratinocytes; assay: keratinocyte viability, Neutral red, HaCat II4; assay type: cell-based; settings: Homo sapiens
# Method: as §2
# [11] = tested on: different cell-lines; assay: mean IC50 over cell lines and therapeutic index
# [12] = tested on: human neuroblastoma (SK-N-SH); assay: cell viability (neutral red, Almar Blue, Hoechst dye), neuroblastoma SK-N-SH; assay type: cell-based; settings: Homo sapiens, SK-N-SH; Table 1A
# [13] = tested on: rat glioblastoma (C6); assay: cell viability, glioma C6; assay type: cell-based; settings: Rattus norvegicus; Table 1A
# [14] = tested on: human breast (MCF7); assay: cell viability, breast MCF7; assay type: cell-based; settings: Table 1A
# [15] = tested on: Colon Ht-29; assay: cell viability, colon Ht-29; assay type: cell-based; settings: Homo sapiens, Table 1A
# [16] = tested on: mouse-selected embryo, neuronal culture; assay: primary tissue culture, neuronal; assay type: cell-based; settings: data not shown
# [17] = tested on: rat new born myocytic culture; assay: primary tissue culture, myocytic; assay type: cell-based; settings: data not shown
# [18] = tested on: Neuroblastoma cell line (SK-NSH); assay: apoptosis by flow cytometry of propidium iodide stained cells; assay type: cell-based, human; settings: after 24 and 48 hours at 20 μM and higher; FIG. 7
# Method: The percentage of apoptosis of the cells was determined by flow cytometry of propidium iodide stained cells using a fluorescence-activated cell sorter (FACScan) (Becton and Dickenson, Heidelberg, Calif.) equipped with an argon ion laser (an excitation wavelength, […]) and a doublet discrimination module (DDM). Lysis II (BD) software was used for data acquisition.
# [19] = tested on: p53 mutant; assay: p53 mutant expression, western blotting in glioma C6; assay type: cell-based, rat; settings: 60 μM, FIG. 8
# [20] = Homo sapiens, HaCaT, mean of the determinations, read-out: IC50 HaCat I5 ME
# [21] = Homo sapiens, HaCaT, single determinations, read-out: IC50 HaCat I5
compound,measurement,setting,value
Fc1ccc([C@@H]2CCNC[C@H]2COc2ccc3c(c2)OCO3)cc1 [Paroxetine],sensitivity of neuroblastoma cells compared to primary tissue (viability),"[1]; 10 μM to 100 μM, neutral red, 24 hr post treatment, vs primary mouse brain and selected neurons, FIG. 1",increased sensitivity
same,IC50,"[1]; Table 1B, read-out: Cell viability IC50 Neuroblastoma SH-SY5T",15 µM
same,IC50,"[2]; Example 9, read-out: IC50 levels, wild type B16 mouse melanoma",15 to 20 µM
same,IC50,"[2]; Table 1B, read-out: Cell viability IC50 Melanoma 16B",12 µM
same,IC50,"[3]; Table 1B, read-out: Cell viability IC50 Prostate LN-Cap",16 µM
same,IC50,[4],< 10 µM
same,IC50,"[5]; B16, Example 9, FIG. 9, read-out: IC50 levels, transformed (MDR) B16 melanoma",15 to 20 µM
same,IC50,"[5]; Table 1B, read-out: Cell viability IC50 Melanoma B16 MDR",11 µM
same,survival rate during four weeks of treatment,[6],5/6
same,lungs weight / tumor size compared to control group,[6]; FIG. 5,effective in reducing tumor size
same,potentiation of doxorubicin (in words),[7],same effect
same,cell viability HaCat (in words),"[8]; 5-100 μM, 24 hr, Neutral red, FIG. 13A, 15A",effective in reducing cell viability
same,cell viability HaCat I5 (in words),"[9]; 5-100 μM, 24 hr, Neutral red, FIG. 13B, 15B",effective in reducing cell viability
same,IC50,[9]; [20],21 µM
same,IC50,[9]; [21],21 µM
same,IC50,[10],12 µM
same,IC50,[11]; read-out: IC50 Mean +/− SD,12.4 µM
OCCN1CCN(CCCN2c3ccccc3Sc3ccc(Cl)cc32)CC1 [Perphenazine],IC50,[12],21 µM
same,IC50,"[1]; Table 1A, read-out: Viability IC50 Neuroblastoma SH-SY5T",15 µM
same,IC50,[13],22 µM
same,IC50,"[2]; Table 1A, read-out: Viability IC50 Melanoma B16",23 µM
same,IC50,"[3]; Table 1A, read-out: Viability IC50 Prostate LN-Cap",18 µM
same,IC50,[14],21 µM
same,IC50,[15],22 µM
same,IC50,[16],60 µM
same,IC50,[17],35 to 55 µM
same,apoptosis (in words),[18],mortal and dramatic apoptosis
same,mean decrease in expression of p53 mutant,[19],30%
same,IC50,"[8]; mean of the determinations, read-out: IC50 HaCat ME",24 µM
same,IC50,"[8]; single determinations, read-out: IC50 HaCat",24 µM
same,IC50,[9]; [20],26 µM
same,IC50,[9]; [21],30 µM
same,IC50,"[9]; single determinations, read-out: IC50 HaCat I5",22 µM
same,IC50,[11]; read-out: IC50 Mean ± SD,20 ± 2.7 µM
